pKd: −log10 of the molar value.
Biological target: T1, VcCBP (Vibrio cholerae, UniProt Q9KUA3)
T1 construct: gene VC_0620
T1 sequence (Q9KUA3 28-556 limits assumed): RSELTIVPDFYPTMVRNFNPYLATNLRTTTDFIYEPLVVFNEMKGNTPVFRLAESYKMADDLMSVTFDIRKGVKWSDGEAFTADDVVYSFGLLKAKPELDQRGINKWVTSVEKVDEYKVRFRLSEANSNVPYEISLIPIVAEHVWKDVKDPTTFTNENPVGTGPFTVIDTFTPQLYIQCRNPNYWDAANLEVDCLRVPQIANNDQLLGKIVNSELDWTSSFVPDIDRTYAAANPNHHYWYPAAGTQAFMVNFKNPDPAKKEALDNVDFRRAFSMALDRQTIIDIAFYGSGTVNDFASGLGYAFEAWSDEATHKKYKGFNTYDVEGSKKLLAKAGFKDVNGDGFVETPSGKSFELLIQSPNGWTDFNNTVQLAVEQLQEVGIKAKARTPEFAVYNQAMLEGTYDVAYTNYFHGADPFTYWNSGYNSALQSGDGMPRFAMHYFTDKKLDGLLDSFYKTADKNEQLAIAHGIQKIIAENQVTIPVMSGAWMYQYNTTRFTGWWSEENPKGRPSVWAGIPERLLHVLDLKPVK

Work on `CC(=O)N[C@H]1[C@H](O[C@H]2[C@H](O)[C@@H](NC(C)=O)C(O)O[C@@H]2CO)O[C@H](CO)[C@@H](O)[C@@H]1O` (stereo partly shown) [(GlcNAc)2] yielded a pKd of 6.61.

— publication PMC10667598 (Scientific Reports, 2023)
